Source: patent US8729031B2, “Compounds” (priority 2009, dated 2014)
Converted amounts (≈) assume the structure as drawn. Where two headings read alike, the source gives them in different places.

Experiments:
Format in all cases: cell-based
S. aureus SH1000 = system: S. aureus SH1000
Protocol: (§1) Susceptibility testing with the exception of Streptococcus pneumoniae was performed by two-fold serial dilutions in Mueller Hinton Broth supplemented with 50 μg/mL Ca^2+. Susceptibility testing of S. pneumoniae was performed by two-fold serial dilutions in Brain-Heart-Infusion Broth supplemented with 50 μg/mL Ca^2+.

S. aureus R33 (MRSA) = system: S. aureus R33 (MRSA)
Protocol: as §1

Streptococcus pneumoniae = assay: microbe, parasite or virus in culture; conditions: Streptococcus pneumoniae, read-out: MIC
Protocol: as §1

Row | Compound | MIC in μg/mL against strain S. aureus SH1000 (S. aureus SH1000) | MIC in μg/mL against strain S. aureus R33 (MRSA) (S. aureus R33 (MRSA)) | other results
1 | CC[C@H](C)[C@@H]1NC(=O)[C@@H]2NC(=O)[C@H](CC(C)C)NC(=O)[C@H](NC(=O)[C@@H]3CSC[C@@H](N)C(=O)N[C@@H](CO)C(=O)NCC(=O)N[C@@H](Cc4c[nH]c5ccccc45)C(=O)N[C@@H](C(C)C)C(=O)N3)[C@H](C)SC[C@H](NC(=O)[C@H](CCC(=O)O)NC1=O)C(=O)NCC(=O)N[C@H]1C(=O)N[C@@H](CC(C)C)C(=O)N[C@@H](C(C)C)C(=O)N[C@@H](CS[C@H]2C)C(=O)N[C@@H](C)C(=O)N[C@H](C(=O)NCCCCCCNS(=O)(=O)c2c(Cl)cc(Cl)cc2Cl)CS[C@H]1C [Example 27, Deoxyactagardine B [6-(2′,4′,6′-trichlorobenzenesulfonamido)hexylamine]monocarboxamide] | 8 µg/mL (≈ 3.61 µM) | 8 µg/mL (≈ 3.61 µM) | –
2 | CC[C@H](C)[C@@H]1NC(=O)[C@@H]2NC(=O)[C@H](CC(C)C)NC(=O)[C@H](NC(=O)[C@@H]3CSC[C@@H](N)C(=O)N[C@@H](CO)C(=O)NCC(=O)N[C@@H](Cc4c[nH]c5ccccc45)C(=O)N[C@@H](C(C)C)C(=O)N3)[C@H](C)SC[C@H](NC(=O)[C@H](CCC(=O)O)NC1=O)C(=O)NCC(=O)N[C@H]1C(=O)N[C@@H](CC(C)C)C(=O)N[C@@H](C(C)C)C(=O)N[C@@H](CS[C@H]2C)C(=O)N[C@@H](C)C(=O)N[C@H](C(=O)N2CCN(Cc3ccc(Br)cc3F)CC2)CS[C@H]1C [Example 7, Deoxyactagardine B [4-(2′-fluoro-4′-bromobenzyl)piperazine]monocarboxamide] | 8 µg/mL (≈ 3.76 µM) | 8 µg/mL (≈ 3.76 µM) | –
3 | CC[C@H](C)[C@@H]1NC(=O)[C@@H]2NC(=O)[C@H](CC(C)C)NC(=O)[C@H](NC(=O)[C@@H]3CSC[C@@H](N)C(=O)N[C@@H](CO)C(=O)NCC(=O)N[C@@H](Cc4c[nH]c5ccccc45)C(=O)N[C@@H](C(C)C)C(=O)N3)[C@H](C)SC[C@H](NC(=O)[C@H](CCC(=O)O)NC1=O)C(=O)NCC(=O)N[C@H]1C(=O)N[C@@H](CC(C)C)C(=O)N[C@@H](C(C)C)C(=O)N[C@@H](CS[C@H]2C)C(=O)N[C@@H](C)C(=O)N[C@H](C(=O)NCCCNCCCNCc2cc(Cl)cc(Cl)c2)CS[C@H]1C [Example 20, Deoxyactagardine B [3-(3′-(3″,5″-dichlorobenzylamino)propylamino)propylamine]monocarboxamide] | 8 µg/mL (≈ 3.73 µM) | 8 µg/mL (≈ 3.73 µM) | –
4 | Deoxyactagardine B [3-(2′-aminomethyl-4′-(2″-nitro-4″-chlorophenyl)-furanyl)propylamine]monocarboxamide [Example 33] | ≦4 μg/mL | ≦4 μg/mL | –
5 | Deoxyactagardine B (3-chlorobenzylamine)monocarboxamide [Example 24] | ≦4 μg/mL | ≦4 μg/mL | –
6 | CC[C@H]1OC(=O)[C@H](C)[C@@H](O[C@H]2C[C@@](C)(OC)[C@@H](O)[C@H](C)O2)[C@H](C)[C@@H](O[C@@H]2O[C@H](C)C[C@H](N(C)C)[C@H]2O)[C@](C)(O)C[C@@H](C)C(=O)[C@H](C)[C@@H](O)[C@]1(C)O [Erythromycin, reference compound] | – | – | MIC (Streptococcus pneumoniae; isolate QB37301, penicillin Resistant): > 32 µg/mL; MIC (Streptococcus pneumoniae; isolate QB37302, penicillin Resistant): > 32 µg/mL; MIC (Streptococcus pneumoniae; isolate QB37303, penicillin Intermediate): ≤ 0.015 µg/mL; MIC (Streptococcus pneumoniae; isolate QB37304, penicillin Susceptible): 8 µg/mL (≈ 10.9 µM); MIC (Streptococcus pneumoniae; isolate QB37306, penicillin Susceptible): ≤ 0.015 µg/mL; MIC (Streptococcus pneumoniae; isolate QB37307, penicillin Intermediate): ≤ 0.015 µg/mL; MIC (Streptococcus pneumoniae; isolate QB37308, penicillin Susceptible): ≤ 0.015 µg/mL; MIC (Streptococcus pneumoniae; isolate QB37309, penicillin Resistant): 2 µg/mL (≈ 2.73 µM); MIC (Streptococcus pneumoniae; isolate QB37310, penicillin Resistant): > 32 µg/mL; MIC (Streptococcus pneumoniae; isolate QB37311, penicillin Resistant): > 32 µg/mL; MIC (Streptococcus pneumoniae; isolate QB37312, penicillin Intermediate): > 32 µg/mL; MIC (Streptococcus pneumoniae; isolate QB37313, penicillin Susceptible): > 32 µg/mL; MIC (Streptococcus pneumoniae; isolate QB37314, penicillin Resistant): > 32 µg/mL; MIC (Streptococcus pneumoniae; isolate QB37315, penicillin Susceptible): ≤ 0.015 µg/mL; MIC (Streptococcus pneumoniae; isolate QB37316, penicillin Susceptible): ≤ 0.015 µg/mL; MIC (Streptococcus pneumoniae; isolate QB37317, penicillin Susceptible): ≤ 0.015 µg/mL; MIC (Streptococcus pneumoniae; isolate QB37318, penicillin Resistant): 4 µg/mL (≈ 5.45 µM); MIC (Streptococcus pneumoniae; isolate QB37319, penicillin Resistant): > 32 µg/mL
7 | Deoxyactagardine B (2-chlorobenzylamine)monocarboxamide [Example 23] | ≦4 μg/mL | ≦4 μg/mL | –
8 | Deoxyactagardine B 19-[4-(4′-chlorophenyl)piperazine]monocarboxamide [Example 4] | ≦4 μg/mL | ≦4 μg/mL | –
9 | CC[C@H](C)[C@@H]1NC(=O)[C@@H]2NC(=O)[C@H](CC(C)C)NC(=O)[C@H](NC(=O)[C@@H]3CSC[C@@H](N)C(=O)N[C@@H](CO)C(=O)NCC(=O)N[C@@H](Cc4c[nH]c5ccccc45)C(=O)N[C@@H](C(C)C)C(=O)N3)[C@H](C)SC[C@H](NC(=O)[C@H](CCC(=O)O)NC1=O)C(=O)NCC(=O)N[C@H]1C(=O)N[C@@H](CC(C)C)C(=O)N[C@@H](C(C)C)C(=O)N[C@@H](CS[C@H]2C)C(=O)N[C@@H](C)C(=O)N[C@H](C(=O)NCCCCCCNCc2cc(Cl)cc(Cl)c2)CS[C@H]1C [Example 30, Deoxyactagardine B [6-(3′,5′-dichlorobenzylamino)-hexylamine]monocarboxamide] | 4 µg/mL (≈ 1.88 µM) | 8 µg/mL (≈ 3.75 µM) | –
10 | CC[C@H](C)[C@@H]1NC(=O)[C@@H]2NC(=O)[C@H](CC(C)C)NC(=O)[C@H](NC(=O)[C@@H]3CSC[C@@H](N)C(=O)N[C@@H](CO)C(=O)NCC(=O)N[C@@H](Cc4c[nH]c5ccccc45)C(=O)N[C@@H](C(C)C)C(=O)N3)[C@H](C)SC[C@H](NC(=O)[C@H](CCC(=O)O)NC1=O)C(=O)NCC(=O)N[C@H]1C(=O)N[C@@H](CC(C)C)C(=O)N[C@@H](C(C)C)C(=O)N[C@@H](CS[C@H]2C)C(=O)N[C@@H](C)C(=O)N[C@H](C(=O)N2CCN(c3ccc(Cl)c(Cl)c3)CC2)CS[C@H]1C [Example 10, Deoxyactagardine B [4-(3′,4′-dichlorophenyl)piperazine]monocarboxamide] | 8 µg/mL (≈ 3.83 µM) | – | –
11 | Deoxyactagardine B (4-chlorobenzylamine)monocarboxamide [Example 25] | ≦4 μg/mL | ≦4 μg/mL | –
12 | CC[C@H](C)[C@@H]1NC(=O)[C@@H]2NC(=O)[C@H](CC(C)C)NC(=O)[C@H](NC(=O)[C@@H]3CSC[C@@H](N)C(=O)N[C@@H](CO)C(=O)NCC(=O)N[C@@H](Cc4c[nH]c5ccccc45)C(=O)N[C@@H](C(C)C)C(=O)N3)[C@H](C)SC[C@H](NC(=O)[C@H](CCC(=O)O)NC1=O)C(=O)NCC(=O)N[C@H]1C(=O)N[C@@H](CC(C)C)C(=O)N[C@@H](C(C)C)C(=O)N[C@@H](CS[C@H]2C)C(=O)N[C@@H](C)C(=O)N[C@H](C(=O)NCc2ccc(Br)cc2)CS[C@H]1C [Example 9, Deoxyactagardine B [4-bromobenzylamine]monocarboxamide] | 8 µg/mL (≈ 3.92 µM) | – | –
13 | deoxyactagardine B N-[1-(1-methyl-4-piperidinyl)piperazine]monocarboxamide [reference compound] | – | – | MIC against Stapholococcus aureus strain SH1000 (S. aureus SH1000; strain SH1000, text b20): approximately 64 μL/mL; MIC against Stapholococcus aureus strain R33 (S. aureus R33 (MRSA); strain R33, text b20): approximately 64 μL/mL
14 | CC[C@H](C)[C@@H]1NC(=O)[C@@H]2NC(=O)[C@H](CC(C)C)NC(=O)[C@H](NC(=O)[C@@H]3CSC[C@@H](N)C(=O)N[C@@H](CO)C(=O)NCC(=O)N[C@@H](Cc4c[nH]c5ccccc45)C(=O)N[C@@H](C(C)C)C(=O)N3)[C@H](C)SC[C@H](NC(=O)[C@H](CCC(=O)O)NC1=O)C(=O)NCC(=O)N[C@H]1C(=O)N[C@@H](CC(C)C)C(=O)N[C@@H](C(C)C)C(=O)N[C@@H](CS[C@H]2C)C(=O)N[C@@H](C)C(=O)N[C@H](C(=O)NCc2ccc(F)cc2F)CS[C@H]1C [Example 15, Deoxyactagardine B (2,4-difluorobenzylamine)monocarboxamide] | 8 µg/mL (≈ 4 µM) | 8 µg/mL (≈ 4 µM) | –
